{"source": "paper PMC12224939", "about": "“Trypstatin as a Novel TMPRSS2 Inhibitor with Broad‐Spectrum Efficacy against Corona and Influenza Viruses” (Advanced Science, 2025)", "key": {"[1]": {"system": "lentiviral pseudoparticles harboring the MERS-CoV spike", "test": "microbe, parasite or virus in culture", "details": "Middle East respiratory syndrome-related coronavirus"}, "[2]": {"system": "lentiviral pseudoparticles harboring the SARS-CoV-1 spike", "test": "microbe, parasite or virus in culture", "details": "Severe acute respiratory syndrome coronavirus, Caco-2, read-out: anti-viral IC50 (±SEM), SARS-CoV-1 pp"}}, "note": "Where a name gives a salt, the structure may show the parent alone. Read-outs that look alike come from different tables or passages of the source."}
{"smiles": "CN(C)C(=O)COC(=O)Cc1ccc(OC(=O)c2ccc(NC(=N)N)cc2)cc1", "note": "[Camostat mesylate]", "values": [{"measurement": "IC50", "setting": "[1]; Caco-2, 48 h, read-out: IC50, MERS-CoV spike pseudoparticles", "result": 50, "unit": "nM"}, {"measurement": "IC50", "setting": "[1]; Caco-2, read-out: anti-viral IC50 (±SEM), MERS-CoV pp", "result": "49.9 ± 19", "unit": "nM"}, {"measurement": "IC50", "setting": "[2]", "result": "71.1 ± 8", "unit": "nM"}]}
